Reference: patent US5477857A, “Diagnostic uses of hydrazinoadenosines” (priority 1993, dated 1995)
pEC50: −log10 of the molar value.

How the values were obtained:
[1] = tested on: circumflex coronary artery; assay: Circumflex coronary blood flow in anesthetized dog, electromagnetic flow probes; assay type: in vivo; details: for increase in circumflex coronary blood flow: adenosine 372 μg/kg/min, Compound A 1.0 μg/kg/min
Procedure: An anesthetized dog was prepared for cardiovascular function testing.

[2] = Systemic blood pressure response in anesthetized dog; details: infusion: adenosine 372 μg/kg/min, Compound A 1 μg/kg/min
Procedure: An anesthetized dog was prepared for cardiovascular function testing. Electromagnetic flow probes were placed on the circumflex coronary artery and the left anterior descending coronary artery. Systemic systolic and diastolic blood pressure and heart rate were also measured.

[3] = tested on: circumflex coronary artery; assay: Thallium-201 scintigram in anesthetized dogs with stenosed circumflex coronary artery; assay type: in vivo; details: dog, adenosine 372 μg/kg/min for 6 minutes, Compound A 0.6 μg/kg/min
Excerpt: Dogs were anesthetized and their circumflex coronary artery was stenosed to produce a cardiac perfusion deficit.

[4] = tested on: coronary arterioles; details: background, cited from earlier work
[5] = literature; cited from earlier work
[6] = biological target: A2a (coronary) (Cavia porcellus, UniProt P46616)
Procedure: An isolated guinea pig heart preparation was set up using well-known techniques. The heart was perfused with a constant flow pump through the coronary vessels with a oxygenated balanced salt solution. The coronary perfusion pressure and the EKG were measured. Under constant flow, a decrease in coronary perfusion pressure indicates dilation (A2a effect).

[7] = biological target: T1, A1 (EKG) (Cavia porcellus, UniProt P47745); assay: A50 for decrease in heart rate or conduction velocity on the EKG (A1 effect) in the isolated guinea pig heart
T1 construct: An isolated guinea pig heart preparation was set up using well-known techniques; from tissue; host or cells: isolated perfused guinea pig heart
T1 sequence (P47745 1-326): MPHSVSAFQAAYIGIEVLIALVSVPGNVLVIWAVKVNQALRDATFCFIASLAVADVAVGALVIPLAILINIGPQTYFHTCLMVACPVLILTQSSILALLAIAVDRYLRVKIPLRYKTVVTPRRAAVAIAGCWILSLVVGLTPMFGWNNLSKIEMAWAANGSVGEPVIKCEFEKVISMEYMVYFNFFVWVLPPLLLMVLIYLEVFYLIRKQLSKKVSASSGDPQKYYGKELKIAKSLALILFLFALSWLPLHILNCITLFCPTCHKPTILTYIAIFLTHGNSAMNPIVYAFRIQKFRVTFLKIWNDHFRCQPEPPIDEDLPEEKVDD

[8] = infusion: adenosine 372 μg/kg/min, Compound A 1 μg/kg/min

Chain of A2a (coronary) (P46616 whole entry, the tested form may be a part): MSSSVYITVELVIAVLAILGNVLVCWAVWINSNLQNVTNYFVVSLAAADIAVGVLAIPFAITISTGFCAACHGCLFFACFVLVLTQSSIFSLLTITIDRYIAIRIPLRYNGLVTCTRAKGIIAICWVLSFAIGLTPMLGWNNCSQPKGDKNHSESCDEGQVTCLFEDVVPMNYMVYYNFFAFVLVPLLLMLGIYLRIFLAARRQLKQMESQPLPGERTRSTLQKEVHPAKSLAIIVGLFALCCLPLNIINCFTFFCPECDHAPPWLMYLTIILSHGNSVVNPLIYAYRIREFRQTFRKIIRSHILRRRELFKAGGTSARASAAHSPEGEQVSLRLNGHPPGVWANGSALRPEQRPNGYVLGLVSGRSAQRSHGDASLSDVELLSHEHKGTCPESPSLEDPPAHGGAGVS

Structure (SMILES) | increase in circumflex coronary blood flow [1] [%] | CHANGE IN […] FLOW [1, 8] | CHANGE IN SYSTOLIC BLOOD PRESSURE [2] [%] | DURATION OF RESPONSE [2] [min] | perfusion defect shown on thallium-201 scintigram [3] | duration of coronary blood flow effect [4] | heart block ([4]; particularly at doses near 1 mg/kg) | duration of significant hypotensive response [5] | reflex tachycardia [5] | S[…] A1/A2a ([6]; A50 EKG (A1) over A50 coronary (A2a)) | potency relative to adenosine in causing coronary vasodilation ([6]; isolated guinea pig heart, vs adenosine) [times] | pEC50 ([6]; read-out: A50 CORONARY (A2a EFFECT), isolated guinea pig heart, concentration producing a 50% maximal response) | pEC50 [7] | CHANGE IN CIRCUMFLEX CORONARY FLOW [1, 8]
Nc1ncnc2c1ncn2[C@@H]1O[C@H](CO)[C@@H](O)[C@H]1O [Adenosine, adenosine] | 300 | +300% | -25 | 5 | clearly showed a perfusion defect | short-lasting | even blocks (stops) the heart beat | – | – | – | – | – | – | –
CCNC(=O)[C@H]1O[C@@H](n2cnc3c(N)nc(NCCc4ccc(CCC(=O)O)cc4)nc32)[C@H](O)[C@@H]1O [CGS 21680] | – | – | – | – | – | – | – | more than 24 hrs | significant reflex tachycardia | – | – | – | – | –
Nc1nc(NN=CC2CCCCC2)nc2c1ncn2[C@@H]1O[C@H](CO)[C@@H](O)[C@H]1O [Compound A] | 500 | – | – | 15 | – | – | – | – | – | 15,000 | 250 | 9.70 | 5.52 | +500%
